Data taken from USRE43802E1, “α- and β-amino acid hydroxyethylamino sulfonamides useful as retroviral protease inhibitors” (G.D. Searle LLC, priority 1992, dated 2012).
Read-outs that look alike come from different tables or passages of the source.

Columns and labels:
[1] = system: CEM cells; test: Intrinsic toxicity of test compound in uninfected CEM cells (MTT); type: cell-based; conditions: Table 21
Description: Methods, 20, 309-321 (1988).

[2] = molecular target: T1, HIV protease (Human immunodeficiency virus type 1 group M subtype B, UniProt P04585); test: HIV protease enzyme assay (fluorescence, substrate 2-Ile-Nle-Phe(p-NO2)-Gln-ArgNH2); type: biochemical; conditions: for IC50: HIV protease enzyme assay
T1 construct: HIV protease is diluted in the assay buffer to a final enzyme concentration of 12.3 nanomolar, based on a molecular weight of 10,780
Protocol: The enzyme method is described below. […] The positive control is MVT-101 (Miller, M. et al, Science, 246, 1149 (1989)] The assay conditions are as follows:
Assay buffer: 20 mM sodium phosphate, pH 6.4 20% glycerol 1 mM EDTA 1 mM DTT 0.1% CHAPS
The above described substrate is dissolved in DMSO, then diluted 10 fold in assay buffer. Final substrate concentration in the assay is 80 μM.
The final concentration of DMSO is 14% and the final concentration of glycerol is 18%. The test compound is dissolved in DMSO and diluted in DMSO to 10× the test concentration; 10 μl of the enzyme preparation is added, the materials mixed and then the mixture is incubated at ambient temperature for 15 minutes. The enzyme reaction is initiated by the addition of 40 μl of substrate. The increase in fluorescence is monitored at 4 time points (0, 8, 16 and 24 minutes) at ambient temperature. Each assay is carried out in duplicate wells.

[3] = system: HIV-1; test: microbe, parasite or virus in culture; conditions: Human immunodeficiency virus 1, CCRF-CEM, 168 h
Protocol: Assays were performed in 96-well tissue culture plates. CEM cells, a CD4^+ cell line, were grown in RPMI-1640 medium (Gibco) supplemented with a 10% fetal calf serum and were then treated with polybrene (2 μg/ml). An 80 μl volume of medium containing 1×10^4 cells was dispensed into each well of the tissue culture plate. To each well was added a 100 μl volume of test compound dissolved in tissue culture medium (or medium without test compound as a control) to achieve the desired final concentration and the cells were incubated at 37° C. for 1 hour. […] Likewise, the intrinsic toxicity of the test compound was determined by adding medium without virus to several wells containing test compound. […]
Following the addition of virus, cells were incubated at 37° C. in a humidified, 5% CO2 atmosphere for 7 days. […] The absorbance at 590 nm was determined for each sample using a Molecular Devices microplate reader. Absorbance values for each set of wells is compared to assess viral control infection, uninfected control cell response as well as test compound by cytotoxicity and antiviral efficacy.

[4] = Table 19B, read-out: IC50 (uM) or % inhib: IC50
[5] = Table 20, read-out: IC50 (uM) or % inhibition: IC50

COc1ccc(S(=O)(=O)N(CC(C)C)C[C@@H](O)[C@H](Cc2ccccc2)NC(=O)c2c(C)cccc2C)cc1 [Example 32]
TD50 (nM) [1]: 17,000 nM
IC50 ([2]; IC50 (nM), Table 21): 5 nM

COc1ccc(S(=O)(=O)N(CC(C)C)C[C@@H](O)[C@H](Cc2ccccc2)NC(=O)c2ccccc2)cc1 [Example 28]
TD50 (nM) [1]: 213,000 nM

CNC(=O)C[C@H](NC(=O)c1ccc2ccccc2n1)C(=O)N[C@@H](Cc1ccccc1)[C@H](O)CN(CCC(C)C)S(=O)(=O)c1ccccc1 [Entry 7]
IC50 ([2]; IC50 (nM), Table 21): 3 nM
EC50 [3]: 25 nM

CC(C)CN(C[C@@H](O)[C@H](Cc1ccccc1)NC(=O)OCc1cccnc1)S(=O)(=O)c1ccccc1 [Example 16]
TD50 (nM) [1]: 62,000 nM
IC50 ([2]; Table 21, read-out: IC50): 9 nM

COc1ccc(S(=O)(=O)N(CC(C)C)C[C@@H](O)[C@H](Cc2ccccc2)NC(=O)OCc2cccnc2)cc1 [Example 17]
TD50 (nM) [1]: 59,000 nM
IC50 ([2]; Table 21, read-out: IC50): 4 nM

COc1ccc(S(=O)(=O)N(CC(C)C)C[C@@H](O)[C@H](Cc2ccccc2)NC(=O)c2ccccc2Cl)cc1 [Example 30]
TD50 (nM) [1]: 154,000 nM

COc1ccc(S(=O)(=O)N(CC(C)C)C[C@@H](O)[C@H](Cc2ccccc2)NC(=O)OC(C)(C)C)cc1 [Example 27]
TD50 (nM) [1]: 300,000 nM
IC50 ([2]; Table 21, read-out: IC50): 5 nM

Cc1c(O)cccc1C(=O)N[C@@H](Cc1ccccc1)[C@H](O)CN(CC(C)C)S(=O)(=O)c1ccc(N)cc1 [Example 63]
IC50 ([2]; Table 21, read-out: IC50): 7 nM

O=C(N[C@@H](Cc1ccccc1)[C@H](O)CN(C1CCCCC1)S(=O)(=O)c1ccccc1)OCc1ccccc1 [Entry 5]
IC50 ([2]; Table 18A, read-out: IC50): 19 nM
IC50 ([2]; Table 21, read-out: IC50): 19 nM

CCC(C)C(NC(=O)OCc1ccccc1)C(=O)N[C@@H](Cc1ccccc1)[C@H](O)CN(CCC(C)C)S(=O)(=O)c1ccccc1 (stereo partly shown) [Table 3 Entry 4]
IC50 [2, 4]: 2.4 nM

Cc1c(N)cccc1C(=O)N[C@@H](Cc1ccccc1)[C@H](O)CN(CC(C)C)S(=O)(=O)c1ccc2c(c1)OCO2 [Example 71]
IC50 ([2]; Table 21, read-out: IC50): 5 nM

CC(C)CN(C[C@@H](O)[C@H](Cc1ccccc1)NC(=O)OCc1cncs1)S(=O)(=O)c1ccc(O)cc1 [Example 57]
IC50 ([2]; Table 21, read-out: IC50): 4 nM

COc1ccc(S(=O)(=O)N(CC(C)C)C[C@@H](O)[C@H](Cc2ccccc2)NC(=O)COc2ccccc2C)cc1 [Example 75]
IC50 ([2]; Table 21, read-out: IC50): 8 nM

COc1ccc(S(=O)(=O)N(CC(C)C)C[C@@H](O)[C@H](Cc2ccccc2)NC(=O)OCc2ccc[n+]([O-])c2)cc1 [Example 25]
TD50 (nM) [1]: 167,000 nM
IC50 ([2]; Table 21, read-out: IC50): 60 nM

COc1ccc(S(=O)(=O)N(CC(C)C)CC(O)C(Cc2ccccc2)NC(=O)c2ccccc2S(C)(=O)=O)cc1 (stereo not shown) [Table 5A Entry 17]
IC50 (uM) or % inhibition: % inhibition @ 10 μM ([2]; Table 20, @ 10 μM): 59% @ 10 μM

COc1ccc(S(=O)(=O)N(CC(C)C)CC(O)C(Cc2ccccc2)NC(=O)c2cccc(C)c2C)cc1 (stereo not shown) [Table 5A Entry 16]
IC50 [2, 5]: 8 nM

CC(C)CN(C[C@@H](O)[C@H](Cc1ccccc1)NC(=O)OCc1cccnc1)S(=O)(=O)c1ccc2c(c1)OCO2 [Example 69]
IC50 ([2]; Table 21, read-out: IC50): 4 nM

CC(C)CCN(C[C@@H](O)[C@H](Cc1ccccc1)NC(=O)[C@H](CC(N)=O)NC(=O)OCc1ccccc1)S(=O)(=O)c1ccccc1 [Table 5 Entry 14]
IC50 [2, 4]: 2.2 nM

CC(C)CN(C[C@@H](O)[C@H](Cc1ccccc1)NC(=O)OCc1cccnc1)S(=O)(=O)c1ccc([N+](=O)[O-])cc1 [Example 19]
IC50 ([2]; Table 21, read-out: IC50): 8 nM

COc1ccc(S(=O)(=O)N(CC(C)C)CC(O)C(Cc2ccccc2)NC(=O)c2ccccc2CS(C)(=O)=O)cc1 (stereo not shown) [Table 5A Entry 20]
IC50 (uM) or % inhibition: % inhibition @ 1 μM ([2]; Table 20, @ 1 μM): 85% @ 1 μM

COc1ccc(S(=O)(=O)N(CC(C)C)C[C@@H](O)[C@H](Cc2ccccc2)NC(=O)c2cccc(N(C)C)c2C)cc1 [Example 36]
IC50 ([2]; Table 21, read-out: IC50): 310 nM

CC(C)CCN(CC(O)C(Cc1ccccc1)NC(=O)C(NC(=O)CBr)C(C)(C)C)S(=O)(=O)c1ccccc1 (stereo not shown) [Table 12 Entry 10]
IC50 [2, 4]: 3.3 nM

CC(C)CCN(C[C@@H](O)[C@H](Cc1ccccc1)NC(=O)OCc1ccccc1)S(C)(=O)=O [Table 1a Entry 41]
IC50 (uM) or % inhib: % inhib @ 1 uM ([2]; Table 19B): 24%
IC50 (uM) or % inhib: % inhib @ 10 uM ([2]; Table 19B): 74%

CC(C)CCN(C[C@@H](O)[C@H](Cc1ccccc1)NC(=O)[C@@H](NC(=O)CN(C)C)C(C)(C)C)S(=O)(=O)c1ccccc1 [Entry 11]
IC50 ([2]; IC50 (nM), Table 21): 3 nM

COc1ccc(S(=O)(=O)N(CC(C)C)C[C@@H](O)[C@H](Cc2ccccc2)NC(=O)c2ccccc2C)cc1 [Example 29]
TD50 (nM) [1]: 196,000 nM

COc1ccc(S(=O)(=O)N(CC(C)C)CC(O)C(Cc2ccccc2)NC(=O)c2cccc(S(C)(=O)=O)c2)cc1 (stereo not shown) [Table 5A Entry 18]
IC50 [2, 5]: 130 nM

COc1ccc(S(=O)(=O)N(CC(C)C)C[C@@H](O)[C@H](Cc2ccccc2)NC(=O)O[C@H]2CCS(=O)(=O)C2)cc1
melting point: 69 °C

COc1ccc(S(=O)(=O)N(CC(C)C)C[C@@H](O)[C@H](Cc2ccccc2)NC(=O)OCc2ccncc2)cc1 [Example 22]
TD50 (nM) [1]: 31,000 nM
IC50 ([2]; Table 21, read-out: IC50): 15 nM

CC(C)CN(C[C@@H](O)[C@H](Cc1ccccc1)NC(=O)OCc1cccnc1)S(=O)(=O)c1ccc2c(c1)CCO2 [Example 66]
IC50 ([2]; Table 21, read-out: IC50): 4 nM

CC(C)CN(C[C@@H](O)[C@H](Cc1ccccc1)NC(=O)OCc1ccoc1)S(=O)(=O)c1ccc(N)cc1 [Example 60]
IC50 ([2]; Table 21, read-out: IC50): 5 nM

CC(C)CN(C[C@@H](O)[C@H](Cc1ccccc1)NC(=O)OCc1cncs1)S(=O)(=O)c1ccc2c(c1)OCO2 [Example 70]
IC50 ([2]; Table 21, read-out: IC50): 5 nM

C=CCOC(=O)N[C@@H](Cc1ccccc1)[C@H](O)CN(CC(C)C)S(=O)(=O)c1ccc(OC)cc1 [Table 5 Entry 33]
IC50 [2, 4]: 4.4 nM

CC(C)CN(C[C@@H](O)[C@H](Cc1ccccc1)NC(=O)OCc1ccccc1)S(C)(=O)=O [Table 1a Entry 51]
IC50 (uM) or % inhib: % inhib @ 1 uM ([2]; Table 19B): 31%
IC50 (uM) or % inhib: % inhib @ 10 uM ([2]; Table 19B): 76%

CCC(C)[C@H](NC(=O)CN(C)C)C(=O)N[C@@H](Cc1ccccc1)[C@H](O)CN(CCC(C)C)S(=O)(=O)c1ccccc1 (stereo partly shown) [Entry 14]
IC50 ([2]; IC50 (nM), Table 21): 4 nM

C=CS(=O)(=O)N(CC(C)C)C[C@@H](O)[C@H](Cc1ccccc1)NC(=O)OCc1ccccc1 [Table 1a Entry 55]
IC50 [2, 4]: 100 nM

COc1ccc(S(=O)(=O)N(CC(C)C)C[C@@H](O)[C@H](Cc2ccccc2)NC(=O)OCc2ccc(N)nc2)cc1 [Example 38]
IC50 ([2]; Table 21, read-out: IC50): 4 nM

COc1ccc(S(=O)(=O)N(CC(C)C)C[C@@H](O)[C@H](Cc2ccccc2)NC(=O)c2ccc3nc(N)sc3c2)cc1 [Example 76]
IC50 ([2]; Table 21, read-out: IC50): 5 nM

CC(C)CN(C[C@@H](O)[C@H](Cc1ccccc1)NC(=O)OCc1cncnc1)S(=O)(=O)c1ccc(O)cc1 [Example 41]
IC50 ([2]; Table 21, read-out: IC50): 3 nM

CC(C)CN(C[C@@H](O)[C@H](Cc1ccccc1)NC(=O)OCc1cccnc1)S(=O)(=O)c1ccc(O)cc1 [Example 20]
IC50 ([2]; Table 21, read-out: IC50): 4 nM

CC(C)CCN(C[C@@H](O)[C@H](Cc1ccccc1)NC(=O)[C@@H](NC(=O)CN(C)C)C(C)(C)C)S(=O)(=O)c1ccccc1 [Entry 9]
IC50 ([2]; Table 18A, read-out: IC50): 3.5 nM

COc1ccc(S(=O)(=O)N(CC(C)C)C[C@@H](O)[C@H](Cc2ccccc2)NC(=O)c2cc(N(C)C)ccc2C)cc1 [Example 55]
IC50 ([2]; Table 21, read-out: IC50): 37 nM

CC(C)CCN(C[C@@H](O)[C@H](Cc1ccccc1)NC(=O)[C@@H](NC(=O)OCc1ccccc1)C(C)(C)C)S(C)(=O)=O [Entry 11]
IC50 ([2]; Table 18A, read-out: IC50): 81 nM
